Assay results as given in US20050032757A1, “Nutritional supplements” (priority 2003, published 2005).
Where a name gives a salt, the structure may show the parent alone.

Assay: Evaluation of composition stability of PSE and fish oil mixtures with test reagents
Assay type: physicochemical
Details: fish oil 2 g
Protocol: Varying amounts of PSE and fish oil were mixed in a 50 ml beaker. The mixture was warmed to 35-40° C. A variety of test reagents, including surfactants and small carboxylic acid esters, were then examined for their ability to stabilize the mixture at room temperature (RT), 40° C., and 50° C.

[1] = Phytosterol 4 g, test reagent 0.10 g
[2] = Phytosterol 4 g, test reagent 0.20 g
[3] = Phytosterol 4 g, test reagent 0.30 g
[4] = Phytosterol 4 g, test reagent 0.40 g
[5] = Phytosterol 2 g, test reagent 0.10 g

Compound	Stability results [1]	Stability results [2]	Stability results (Phytosterol 2 g, test reagent 0.30 g)	Stability results [3]	Stability results [4]	Stability results [5]
Polysorbate 20	unstable (unstable (separated quickly, usually less than 1-2 hr))	unstable (unstable (separated quickly, usually less than 1-2 hr))	–	–	–	–
CCOC(=O)CC(O)(CC(=O)OCC)C(=O)OCC [Triethyl Citrate]	stable (stable (did not separate for 24 hours))	stable (stable (did not separate for 24 hours))	unstable (unstable (separated quickly, usually less than 1-2 hr))	stable (stable (did not separate for 24 hours))	stable (stable (did not separate for 24 hours))	–
O=C(O)CC(O)(CC(=O)O)C(=O)O [Citric Acid]	insoluble	insoluble	–	insoluble	–	–
CCOC(=O)/C=C\C(=O)OCC [Diethyl Maleate]	stable (stable (did not separate for 24 hours))	stable (stable (did not separate for 24 hours))	–	insoluble	–	–
OCC(O)CO [Glycerin]	insoluble	–	–	–	–	–
Polysorbate 80	–	unstable (unstable (separated quickly, usually less than 1-2 hr))	–	–	–	unstable (unstable (separated quickly, usually less than 1-2 hr))
Sorbitan Oleate	unstable (unstable (separated quickly, usually less than 1-2 hr))	unstable (unstable (separated quickly, usually less than 1-2 hr))	–	unstable (unstable (separated quickly, usually less than 1-2 hr))	unstable (unstable (separated quickly, usually less than 1-2 hr))	–
Sodium Caproyl Lactylate	–	unstable (unstable (separated quickly, usually less than 1-2 hr))	–	–	–	–
Sodium Isostearyl Lactylate	unstable (unstable (separated quickly, usually less than 1-2 hr))	–	–	–	–	–
CCOC(=O)[C@H](O)[C@@H](O)C(=O)OCC [Diethyl L-tartrate]	stable (stable (did not separate for 24 hours))	stable (stable (did not separate for 24 hours))	–	stable (stable (did not separate for 24 hours))	–	–
Polysorbate 60	–	unstable (unstable (separated quickly, usually less than 1-2 hr))	–	unstable (unstable (separated quickly, usually less than 1-2 hr))	unstable (unstable (separated quickly, usually less than 1-2 hr))	unstable (unstable (separated quickly, usually less than 1-2 hr))
